Structures can show the parent of a compound that is named as a salt.
Assays:
[1] = biological target: T1, AChE (Mus musculus, UniProt P21836); assay: Determination of AChE inhibitory activity (Ellman reagent, acetylthiocholine iodide); type: biochemical, mice
T1 construct: The resulting supernatant was used as an AChE source; from tissue; host or cells: mouse cerebral cortex (detergent-extracted supernatant)
Protocol: In order to determine AChE inhibitory activity on each of the 20 subfractions obtained from EXAMPLE 1, 10 volumes of phosphate buffer solution (12.5 mM phosphate buffer solution at pH 7.0, including 400 mM NaCl) was added to the cerebral cortex of mice, homogenized in a Potter-Elvehjem homogenizer and centrifuged at 1,000 g for 10 min to obtain the supernatant. After adding homogenized buffer containing 0.5% triton X-100 to the supernatant, the mixtures were stirred for 30 min and centrifuged again at 10,000 for 10 min. The resulting supernatant was used as an AChE source. All extract steps were carried out at 4° C.
The freeze-dried 20 subfraction extracts of EXAMPLE 1 were initially dissolved in small amounts of distilled water and DMSO. The solution was diluted at a concentration of 200 μg/ml in phosphate buffer (100 mM sodium phosphate, pH 8.0; hereinafter called "buffer solution I"). 1.5 ml of each extract was mixed with 1.5 ml of buffer solution I, 20 μl of 75 mM acetylthiocholine iodide solution and 100 μl of buffered Ellmans reagent [10 mM DTNB (5,5-dithiobis-(2-nitrobenzoic acid)) and 17.85 mM NaHCO3 ] and incubated at 25° C. for 10 min. Absorbance was read at 410 nm immediately after adding an enzyme to the above reaction mixtures. Reading was repeated for 5 min at 30 sec intervals in order to determine AChE inhibitory activity on each subfraction. A blank control reaction was measured by substituting saline for the enzyme.
AChE activity was calculated with the absorption coefficient […]. The inhibition efficacy was expressed as a percentage of enzyme activity inhibited compared with the control value (100%).
All experiments were repeated five times, and the results were analyzed by a Wilcoxon-rank sum test and Median 2-sample test.

[2] = Single toxicity study, lethality by a single oral administration; type: in vivo, rats; conditions: rat, in vivo; after a single administration (oral)
Protocol: (§1) A single toxicity study of the anti-dementia agent according to this invention was measured using rats. […] The lethality results by a single oral administration of DHED are as follows: […]

[3] = tested on: rats; assay: as above; type: in vivo; conditions: single oral, 14 days
Protocol: as §1

[4] = tested on: scopolamine induced amnesia; assay: Passive avoidance test, scopolamine induced amnesia; type: in vivo; conditions: rats
Protocol: Male Sprague-Dawley rates weighing 200~250 g (12~16 weeks) which had been maintained on a 12 h/12 h light-dark cycle were used for a passive avoidance test. Food and water were available ad libitum. An automated system with a shuttle box (Model PACS-30, Columbus Instruments International Company) was used to evaluate the effects of the extracts on learning and memory essentially as described (11). The shuttle box was divided into two chambers of equal size (19"L×9"W×10.875"H). These compartments were separated by a guillotine door (3" L×2.625" W). A light chamber is equipped with an illuminator. Rats can go to the dark chamber through a guillotine door. […]
At 24 hours after the training trial, scopolamine (1 mg/kg) or the same volume of saline was intraperitoneally injected to the rats. […] At 24 hours after the acquisition trial, the rat was again placed in the light compartment and latency to enter the dark compartment was measured for 180 sec (retention trial).
To investigate the effects of repeated administration of DHED, a repeated administration of DHED was intraperitoneally given to the rats at a dose of 6.25 mg/kg. Except for the fact that DHED (6.25 mg/kg) was given to the rats once a day for 5 days before the treatment with scopolamine, the latency time was measured in the same manner as in the single administration.

T1 sequence (P21836 32-614): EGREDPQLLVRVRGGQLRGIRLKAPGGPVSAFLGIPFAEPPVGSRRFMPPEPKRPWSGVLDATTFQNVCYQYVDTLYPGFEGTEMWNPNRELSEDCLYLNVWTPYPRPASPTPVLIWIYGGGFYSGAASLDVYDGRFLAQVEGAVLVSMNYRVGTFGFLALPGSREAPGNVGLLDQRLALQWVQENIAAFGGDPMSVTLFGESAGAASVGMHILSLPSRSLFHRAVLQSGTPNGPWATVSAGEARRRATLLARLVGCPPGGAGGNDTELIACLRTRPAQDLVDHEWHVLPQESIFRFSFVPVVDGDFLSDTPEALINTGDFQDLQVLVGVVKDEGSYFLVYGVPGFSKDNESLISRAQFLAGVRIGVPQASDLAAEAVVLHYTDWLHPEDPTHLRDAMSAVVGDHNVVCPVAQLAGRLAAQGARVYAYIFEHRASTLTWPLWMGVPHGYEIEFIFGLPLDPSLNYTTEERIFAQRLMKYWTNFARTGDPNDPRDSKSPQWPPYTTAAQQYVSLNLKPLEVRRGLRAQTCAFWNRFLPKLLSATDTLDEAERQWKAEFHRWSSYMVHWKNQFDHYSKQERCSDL

## C[n+]1c2n(c(=O)c3ccccc31)CCc1c-2[nH]c2ccccc12 [DHED, dehydroevodiamine-HCl]
[1]; AChE source from cerebral cortex of mice, FIG. 3, read-out: concentration required for 50% enzyme inhibition (IC50) of AChE
  IC50: 37.8 µM
[1]; FIG. 3
  inhibitory effect on AChE, dose dependence: strong inhibitory effect on AChE in a dose-dependent manner
[1]; substrate 23 to 230 μM, DHED 40 μM, FIG. 4
  manner of AChE inhibition (Lineweaver-Burke plots): non-competitive
[2]
  LD50: 2000 mg/kg
[3]; female, 1,000 mg/kg
  Mortality: 1/5
[3]; female, 1,500 mg/kg
  Mortality: 2/5
[3]; female, 2,000 mg/kg
  Mortality: 0/5
[3]; female, 3,000 mg/kg
  Mortality: 5/5
[3]; female, 4,000 mg/kg
  Mortality: 5/5
[3]; male, 1,000 mg/kg
  Mortality: 0/5
[3]; male, 1,500 mg/kg
  Mortality: 0/5
[3]; male, 2,000 mg/kg
  Mortality: 5/5
[3]; male, 3,000 mg/kg
  Mortality: 4/5
[3]; male, 4,000 mg/kg
  Mortality: 5/5
[4]; 6.25 mg/kg intraperitoneally once a day for 5 days before scopolamine 1 mg/kg, FIG. 6
  memory enhancement (latency in retention trial), repeated administration: may improve memory enhancement
[4]; 6.25 mg/kg intraperitoneally, single, scopolamine 1 mg/kg, FIG. 5
  memory enhancement (latency in retention trial), single administration: significant memory enhancement
